Laboratory results: PubChem BioAssay AID1963429 (Molecular Pharmacology Branch, DTP, NCI, 2024)
Several values for one entry are separate records, joined by “and”; a condition that tells them apart may be missing. Equal values may be shown once.

Test system: 126254-015-R-J1-PDC complex spheroid growth, % test/control
Assay: Anticancer human tumor 126254-015-R-J1-PDC patient-derived soft tissue sarcoma cell line growth inhibition [Asc]
Settings: for viability, T/C: stronger effect = lower value
Summary of the method: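 Tumor cells were grown as complex spheroids with human endothelial cells (HUVEC) and human mesenchymal stem cells as stroma. Agents were tested alone and in combination, in half-log steps down from the clinical Cmax, or from 10 microM where Cmax was unknown.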

[1] = curve of first compound, second compound 0.03 µM
[2] = curve of first compound, second compound 0.0949 µM
[3] = curve of first compound, second compound 0.3 µM
[4] = curve of first compound, second compound 0.949 µM
[5] = curve of first compound, second compound 3 µM
[6] = second compound 0.03 µM, first compound 0.0316 µM
[7] = second compound 0.03 µM, first compound 0.1 µM
[8] = second compound 0.03 µM, first compound 0.316 µM
[9] = second compound 0.03 µM, first compound 1 µM
[10] = second compound 0.0949 µM, first compound 0.0316 µM
[11] = second compound 0.0949 µM, first compound 0.1 µM
[12] = second compound 0.0949 µM, first compound 0.316 µM
[13] = second compound 0.0949 µM, first compound 1 µM
[14] = second compound 0.3 µM, first compound 0.0316 µM
[15] = second compound 0.3 µM, first compound 0.1 µM
[16] = second compound 0.3 µM, first compound 0.316 µM
[17] = second compound 0.3 µM, first compound 1 µM
[18] = second compound 0.949 µM, first compound 0.0316 µM
[19] = second compound 0.949 µM, first compound 0.1 µM
[20] = second compound 0.949 µM, first compound 0.316 µM
[21] = second compound 0.949 µM, first compound 1 µM
[22] = second compound 3 µM, first compound 0.0316 µM
[23] = second compound 3 µM, first compound 0.1 µM
[24] = second compound 3 µM, first compound 0.316 µM
[25] = second compound 3 µM, first compound 1 µM
[26] = second compound 0.03 µM, first compound 0.00316 µM
[27] = second compound 0.03 µM, first compound 0.01 µM
[28] = second compound 0.0949 µM, first compound 0.00316 µM
[29] = second compound 0.0949 µM, first compound 0.01 µM
[30] = second compound 0.3 µM, first compound 0.00316 µM
[31] = second compound 0.3 µM, first compound 0.01 µM
[32] = second compound 0.949 µM, first compound 0.00316 µM
[33] = second compound 0.949 µM, first compound 0.01 µM
[34] = second compound 3 µM, first compound 0.00316 µM
[35] = second compound 3 µM, first compound 0.01 µM
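Note: spheroids exposed to compound for seven days.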
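Throughout, for viability, T/C: 100% = DMSO vehicle control wells.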

Compound `O=C(c1cc(Cc2n[nH]c(=O)c3ccccc23)ccc1F)N1CCN(C(=O)C2CC2)CC1` + CCN1C(C(=O)NC23CCC(C(=O)O)(CC2)CC3)C(c2cccc(Cl)c2F)C2(C(=O)Nc3cc(Cl)ccc32)C12CCCCC2 has an IC50 [1] greater than 10000 nM, an IC50 [2] greater than 10000 nM and an IC50 [3] greater than 10000 nM. It also gave an IC50 [4] greater than 10000 nM, an IC50 [5] greater than 10000 nM and a viability, T/C [6] of 95.7%. The viability, T/C [7] was 87.7%, the viability, T/C [8] was 90.3% and the viability, T/C [9] was 74.5%. It also gave a viability, T/C (second compound 0.03 µM, first compound 3.16 µM) of 84.1%, a viability, T/C (second compound 0.03 µM, first compound 10 µM) of 60% and a viability, T/C [10] of 95.5%. The viability, T/C [11] was 100%, the viability, T/C [12] was 87.7% and the viability, T/C [13] was 97.4%. For the same compound, the viability, T/C (second compound 0.0949 µM, first compound 3.16 µM) was 83.2%, the viability, T/C (second compound 0.0949 µM, first compound 10 µM) was 59.2% and the viability, T/C [14] was 98.4%. It also gave a viability, T/C [15] of 90.9%, a viability, T/C [16] of 92.2% and a viability, T/C [17] of 83.6%. It also gave a viability, T/C (second compound 0.3 µM, first compound 3.16 µM) of 77.2%, a viability, T/C (second compound 0.3 µM, first compound 10 µM) of 59% and a viability, T/C [18] of 90%. The viability, T/C [19] was 97%, the viability, T/C [20] was 93.6% and the viability, T/C [21] was 83.9%. It also gave a viability, T/C (second compound 0.949 µM, first compound 3.16 µM) of 73.8%, a viability, T/C (second compound 0.949 µM, first compound 10 µM) of 59.3% and a viability, T/C [22] of 88.8%. The viability, T/C [23] was 90.5%, the viability, T/C [24] was 93.7% and the viability, T/C [25] was 85.4%. For the same compound, the viability, T/C (second compound 3 µM, first compound 3.16 µM) was 73.1% and the viability, T/C (second compound 3 µM, first compound 10 µM) was 70.5%.
With `NC1CCC(NC2CC2c2ccccc2)CC1` (configuration not stated) + CCN1C(C(=O)NC23CCC(C(=O)O)(CC2)CC3)C(c2cccc(Cl)c2F)C2(C(=O)Nc3cc(Cl)ccc32)C12CCCCC2 the IC50 [1] was greater than 100 nM, the IC50 [2] was greater than 100 nM and the IC50 [3] was greater than 100 nM. For the same compound, the IC50 [4] was greater than 100 nM, the IC50 [5] was greater than 100 nM and the viability, T/C (second compound 0.03 µM, first compound 0.000316 µM) was 94.7%. It also gave a viability, T/C (second compound 0.03 µM, first compound 0.001 µM) of 97.4%, a viability, T/C [26] of 99.1% and a viability, T/C [27] of 93.1%. It also gave a viability, T/C [6] of 79.7%, a viability, T/C [7] of 83.1% and a viability, T/C (second compound 0.0949 µM, first compound 0.000316 µM) of 85.6%. For the same compound, the viability, T/C (second compound 0.0949 µM, first compound 0.001 µM) was 81%, the viability, T/C [28] was 93% and the viability, T/C [29] was 83.5%. For the same compound, the viability, T/C [10] was 75.5%, the viability, T/C [11] was 85.9% and the viability, T/C (second compound 0.3 µM, first compound 0.000316 µM) was 87.3%. For the same compound, the viability, T/C (second compound 0.3 µM, first compound 0.001 µM) was 89.4%, the viability, T/C [30] was 82.7% and the viability, T/C [31] was 79.7%. It also gave a viability, T/C [14] of 78.3%, a viability, T/C [15] of 88.4% and a viability, T/C (second compound 0.949 µM, first compound 0.000316 µM) of 90.1%. It also gave a viability, T/C (second compound 0.949 µM, first compound 0.001 µM) of 92.3%, a viability, T/C [32] of 97% and a viability, T/C [33] of 82.5%. The viability, T/C [18] was 81.5%, the viability, T/C [19] was 83.7% and the viability, T/C (second compound 3 µM, first compound 0.000316 µM) was 90%. For the same compound, the viability, T/C (second compound 3 µM, first compound 0.001 µM) was 96.9%, the viability, T/C [34] was 78.1% and the viability, T/C [35] was 74.5%. The viability, T/C [22] was 84.1% and the viability, T/C [23] was 85.2%.
In the case of `NC(=O)C(=Cn1cnc(-c2cc(C(F)(F)F)cc(C(F)(F)F)c2)n1)c1cncnc1`, the viability, T/C (compound 0.000949 µM) is reported as 104% and 107% and 110%, the viability, T/C (compound 0.003 µM) is reported as 92.3% and 94% and 104% and the viability, T/C (compound 0.00949 µM) is reported as 86.1% and 82.2% and 93.2%. The viability, T/C (compound 0.03 µM) was 63.4% and 58.5% and 84.6%, the viability, T/C (compound 0.0949 µM) was 33.2% and 34.4% and 57.5% and the viability, T/C (compound 0.3 µM) was 13.9% and 15.5% and 19.8%. For the same compound, the IC50 (curve of compound) was 49.9 nM and 45.6 nM and 121 nM.
With `COc1c(OCCCN2CCOCC2)ccc2c3n(c(=NC(=O)c4cnc(N)nc4)nc12)CCN3` + CCN1C(C(=O)NC23CCC(C(=O)O)(CC2)CC3)C(c2cccc(Cl)c2F)C2(C(=O)Nc3cc(Cl)ccc32)C12CCCCC2 the IC50 [1] was 44.2 nM, the IC50 [2] was 38.6 nM and the IC50 [3] was 37.4 nM. For the same compound, the IC50 [4] was 49.1 nM, the IC50 [5] was 51 nM and the viability, T/C [26] was 93.9%. For the same compound, the viability, T/C [27] was 91.4%, the viability, T/C [6] was 56.9% and the viability, T/C [7] was 28.8%. For the same compound, the viability, T/C [8] was 17.4%, the viability, T/C [9] was 11.1% and the viability, T/C [28] was 87.3%. For the same compound, the viability, T/C [29] was 73.5%, the viability, T/C [10] was 57.5% and the viability, T/C [11] was 25.8%. It also gave a viability, T/C [12] of 16.1%, a viability, T/C [13] of 9.86% and a viability, T/C [30] of 89.3%. For the same compound, the viability, T/C [31] was 72.3%, the viability, T/C [14] was 57.2% and the viability, T/C [15] was 26.9%. For the same compound, the viability, T/C [16] was 16.3%, the viability, T/C [17] was 10.5% and the viability, T/C [32] was 93.6%. The viability, T/C [33] was 86.5%, the viability, T/C [18] was 61.8% and the viability, T/C [19] was 30.3%. For the same compound, the viability, T/C [20] was 15.6%, the viability, T/C [21] was 10.4% and the viability, T/C [34] was 87.2%. The viability, T/C [35] was 85.3%, the viability, T/C [22] was 62.6% and the viability, T/C [23] was 31.2%. The viability, T/C [24] was 16.4% and the viability, T/C [25] was 10.9%.
